According to patent US20150192564A1, “PROFILING REACTIVE OXYGEN, NITROGEN AND HALOGEN SPECIES” (ENZO LIFE SCIENCES, INC., C/O ENZO BIOCHEM, INC, priority 2008, published 2015):
Read-outs that look alike come from different tables or passages of the source.

Legend:
[1] = tested on: HeLa cells; test: Kinetic changes in levels of NO and ROS in HeLa cells, wide-field fluorescence microscopy (Example 3); assay type: cell-based, Human; settings: 1 mM L-arginine; for NO levels (DAQ signal) / ROS production (FIGS. 5B and 5C): 10-60 min treatment; for NO levels (DAQ signal): 1 μM A23187, 0.2 mM antimycin A, 0.1 mM pyocyanin or combination, FIG. 5A; for ROS production (FIGS. 5B and 5C): 0.2 mM antimycin A, 0.1 mM pyocyanin; for time after treatment at which DAQ signal (NO) was detectable: 1 μM A23187, FIG. 5A
Protocol: HeLa cells were cultured and plated as described in Example 1. On the day of the experiment, cells were loaded with 50 μM of DAQ, 1 l-1M of DCFDA and HE for 2 h, 37° C. and induced with different ROS and NO inducers (1 μM of A23187, 0.2 mM of antimycin A, 1 mM of L-arginine, 0.1 mM of pyocyanin or combination of L-arginine and pyocyanin) at 37° C. Samples for fluorescent microscopy were prepared after 10, 20, 30, 45 and 60 min of treatment as described in Example 1 and analyzed using an Olympus wide field fluorescent microscope (set of filters as described in the Table 2).

[2] = tested on: HeLa cells; test: Profiling of ROS induced in HeLa cells by different ROS inducers, DCFDA/HE staining, wide-field fluorescence microscopy (Example 2); assay type: cell-based, Human; settings: for ROS types induced (green DCF and orange HE fluorescence): HeLa cells, inducer 1 h 37° C., 0.5 mM pyrogallol, 0.1 mM pyocyanin, 0.1 mM TBHP, FIG. 4A
Protocol: For purposes of simplifying the assay description, this example was carried out with only two indicator probes, though analogous procedures were employed as in the case where three fluorophores were utilized. Human cervical carcinoma cell line HeLa was cultured as described in Example 1. The day before the experiment, the cells were seeded in multi-well microscope slides (Gel-Line™, Portsmouth, N.H.) at a density of 2×10^4 cells per well. […] After a brief wash with PBS, the cells were stained with 1 l-1M of DGFDA and HE in culture medium for 30 min, 37° C., washed twice with PBS, overlaid with a cover slip and observed under the fluorescent microscope, using green and orange filters described in the Table 2 (FIG. 4A). To perform specific profiling of ROS/RNS, parallel samples of HeLa cells were pretreated for 30 min with 5 mM NAG (general ROS scavenger, FIG. 4B), 5 mM Tiron (specific superoxide scavenger, FIG. 4C), 10 mM pyruvate (specific peroxide scavenger, FIG. 4D). Pretreated cells were induced as described, overlaid with a cover slip and observed under fluorescent microscope using the same set of filters.

[3] = tested on: HeLa cells; test: ROS/RNS production in HeLa cells, triple staining DAQ/DCFDA/HE, wide-field fluorescence microscopy (Example 1); assay type: cell-based, Human; settings: for effect of pretreatment on ROS production induced by pyocyanin: NAG 5 mM, 3C; for effect of pretreatment on green fluorescence upon combination treatment with L-arginine and pyocyanin: HeLa cells pretreated, ebselen 20 μM, 3D
Protocol: Human cervical adenocarcinoma epithelial cell line HeLa was obtained from ATCC (ATTC, Manassas, Va.) and was routinely cultured in Dulbecco's modified eagle medium with low glucose (Sigma-Aldrich, St. Louis, Mo.), supplemented with 10% fetal bovine serum heat inactivated (ATCC) and 100 U/ml penicillin, […] streptomycin (Sigma). Cell cultures were maintained in an incubator at 37° C., with 5% CO2 atmosphere. Three ROS/RNS fluorescent probes were dissolved in anhydrous DMF at the following concentrations: DAQ-20 mM (a 400× stock solution), DCFDA-5 mM (a 5000× stock solutions), DHE-5 mM (a 5000× stock solution). Anhydrous organic solvents should be used with DMF being the first choice, since DMSO is a hydroxyl radical scavenger and its presence may affect ROS/RNS production in cellular systems. Stock solutions of the dyes were aliquoted and stored at −20° C. The day before the experiment, HeLa cells were seeded on multiwell microscope slides (Gel-Line™ Brand, Portsmouth, N.H.) at a density of 2×10^4 cells per well. On the next day, the cells were loaded with 50 μM of DAQ, 1 μM of DCFDA and HE (all dilutions were made in growth medium) for 2 h, 37° C. Then the medium containing dyes was removed, the cells were briefly washed with PBS and induced with L-arginine (1 mM), pyocyanin (100 μM) or their combination for 20 min. […] Pretreated cells were induced as described earlier, overlaid with a cover slip and observed under fluorescence microscope.

[4] = tested on: HeLa cells; test: Multiplexed ROS/RNS detection in HeLa cells by flow cytometry (Example 4); assay type: cell-based, Human; settings: for NO production (fluorescence of oxidized DAQ product in FL4): one hour treatment; for NO production (fluorescence of oxidized DAQ product in FL4) / effect of pretreatment on L-arginine-induced FL4 (NO) signal: FIG. 6 top panel
Protocol: HeLa cells were cultured as described in Example 1. The day before the experiment, the cells were seeded in 6-well tissue culture dishes at a density of 5×10^5 cells per well. On the day of the experiment, the cells were loaded with 50 μM of DAQ, 1 l-1M of DCFDA and HE (solution in culture medium) for 2 h, 37° C. and induced with L-arginine, pyocyanin or their combination, as described in Example 1. To confirm specificity and selectivity of the staining, parallel samples were treated with NAG (general ROC inhibitor) and cPTIO (general NO scavenger and NOS inhibitor). After one hour treatment, the cells were washed with PBS, trypsinized and resuspended in 0.5 ml of PBS. After resuspension, the cells were immediately analyzed by flow cytometry using FAGS Calibur instrument (or any benchtop cytometer equipped with blue and red lasers could be used). Green fluorescence of oxidized DCF was detected in the FL1 channel (excitation with 488 nm blue laser, emission detection with 530/30 BP filter), red fluorescence of DHE was detected in the FL2 channel (excitation with 488 nm blue laser, emission detection with 585/42 BP filter). Fluorescence of oxidized DAQ product was detected in the FL4 channel (excitation with 635 nm red laser, emission detection with 670 LP filter). There was substantial overlap between the oxidized dye spectra; therefore, compensation was required. For compensation purposes, singly stained samples were prepared and compensation was performed using standard protocols.

[5] = neutral pH and extremes of pH; cited from earlier work
[6] = ROS-generating system: 1O2; cited from earlier work
[7] = ROS-generating system: O2•−; cited from earlier work
[8] = ROS-generating system: •OH; cited from earlier work
[9] = ROS-generating system: NO; cited from earlier work
[10] = ROS-generating system: ONOO−; cited from earlier work
[11] = ROS-generating system: •OCl; cited from earlier work
[12] = ROS-generating system: H2O2; cited from earlier work
[13] = ROS-generating system: ROO−; cited from earlier work
[14] = tested on: cells; settings: cited from earlier work
[15] = cited from earlier work
[16] = HeLa cells induced 20 min, L-arginine 1 mM, pyocyanin 100 μM or combination, FIG. 3A
[17] = FIG. 6 middle and bottom panels
[18] = HeLa cells pretreated 1 h, cPTIO 20 μM, FIG. 3B
[19] = HeLa cells pretreated with 20 μM ebselen, FIG. 3D

Cn1c2cccc(=O)c-2nc2ccccc21 [pyocyanin]
NO levels (DAQ signal) [1]: did not induce any DAQ-detectable signal
ROS production (FIGS. 5B and 5C) [1]: early induction of ROS
ROS types induced (green DCF and orange HE fluorescence) [2]: majority of superoxide
NO production (oxidized DAQ fluorescence, Cy5 filter) [3, 16]: did not affect NO production
superoxide production (HE fluorescence, orange filter) [3, 16]: induced superoxide production
ROS production detected in FL1 and FL2 channels [4, 17]: induced significant ROS production
NO production (fluorescence of oxidized DAQ product in FL4) [4]: did not induce significant NO production

Nc1ccc2c(c1N)C(=O)c1ccccc1C2=O [DAQ, 1,2-diaminoanthraquinone]
pH stability [5]: stable at neutral pH, as well as at extremes of pH

O=C(O)c1ccccc1-c1c2ccc(=O)cc-2oc2cc(Oc3ccc(O)cc3)ccc12 [HPF, 2-[6-(4′-hydroxyl)phenoxy-3H-xanthen-3-on-9-yl]benzoic acid]
Fluorescence increase [6]: 5
Fluorescence increase [7]: 8
Fluorescence increase [8]: 730
Fluorescence increase [9]: 6
Fluorescence increase [10]: 120
Fluorescence increase [11]: 6
Fluorescence increase [12]: 2
Fluorescence increase [13]: 17

CNc1ccc2oc(C[C@H]3O[C@@]4(CC[C@H]3C)O[C@H]([C@H](C)C(=O)c3ccc[nH]3)[C@H](C)C[C@H]4C)nc2c1C(=O)O [A23187]
time after treatment at which DAQ signal (NO) was detectable [1]: 20 min

O=C1OC2(c3cc(Cl)c(O)cc3Oc3cc(O)c(Cl)cc32)c2ccccc21 [OCFH, 2′,7′-dichlorofluorescein]
Fluorescence increase [6]: 26
Fluorescence increase [7]: 67
Fluorescence increase [8]: 7400
Fluorescence increase [9]: 150
Fluorescence increase [10]: 6600
Fluorescence increase [11]: 86
Fluorescence increase [12]: 190
Fluorescence increase [13]: 710

Oc1cccc(O)c1O [pyrogallol]
ROS types induced (green DCF and orange HE fluorescence) [2]: induced mostly superoxide production

O=S(=O)(O)c1cc(O)c(O)c(S(=O)(=O)O)c1 [Tiron]
effect of pretreatment on green fluorescence in pyrogallol-treated cells ([2]; HeLa cells pretreated 30 min, 5 mM Tiron or 10 mM pyruvate, FIG. 4C, 4D): green fluorescence was increased
effect of pretreatment on orange fluorescence (superoxide) ([2]; HeLa cells pretreated 30 min with 5 mM Tiron, then inducers, FIG. 4C): attenuated only orange fluorescence in all treated cells

antimycin A
NO levels (DAQ signal) [1]: did not induce any DAQ-detectable signal
ROS production (FIGS. 5B and 5C) [1]: early induction of ROS

CC(=O)N[C@@H](CS)C(=O)O [NAG, N-acetyl-L-cysteine]
effect of pretreatment on production of ROS types ([2]; HeLa cells pretreated 30 min with 5 mM NAG, then inducers, FIG. 4B): abolished the production of all ROS types
effect of pretreatment on ROS production induced by pyocyanin [3, 18]: attenuated ROS induction
general levels of NO production in pretreated cells ([3]; HeLa cells pretreated with 5 mM NAG, FIG. 3C): increased
effect of pretreatment on pyocyanin-induced ROS production (FL1 and FL2) [4, 17]: blocked
effect of pretreatment on L-arginine-induced FL4 (NO) signal [4]: not

CC1(C)N([O])C(c2ccc(C(=O)[O-])cc2)=[N+]([O-])C1(C)C.[K+] [cPTIO, 2-(4-carboxyphenyl)-4,5-dihydro-4,4,5,5-tetramethyl-1H-imidazolyl-1-oxy-3-oxide, potassium salt]
effect of pretreatment on ROS production induced by pyocyanin [3, 18]: did not affect ROS production
effect of pretreatment on NO production upon L-arginine induction [3, 18]: completely abrogated NO production
effect of pretreatment on green fluorescence upon combination treatment with L-arginine and pyocyanin ([3]; cPTIO 20 μM, FIG. 3B): green fluorescence decreased
effect of pretreatment on L-arginine-induced FL4 (NO) signal [4]: blocked

O=c1c2ccccc2[se]n1-c1ccccc1 [ebselen, 2-phenyl-1,2-benzisoselenazol-3[2H]-one]
effect of pretreatment on levels of NO or superoxide in the combination treated sample [3, 19]: did not restore the original levels of NO or superoxide
effect of pretreatment on peroxynitrite [3, 19]: inactivated peroxynitrite upon its production
effect of pretreatment on green fluorescence upon combination treatment with L-arginine and pyocyanin ([3]; cPTIO 20 μM, FIG. 3B): decreased significantly

N=C(N)NCCC[C@H](N)C(=O)O [L-arginine]
time after treatment at which DAQ signal (NO) was detectable [1]: 10 min
NO levels (DAQ signal) [1]: high levels of NO production
ROS production (FIGS. 5B and 5C) [1]: No significant ROS production
NO production (oxidized DAQ fluorescence, Cy5 filter) [3, 16]: extensive NO production
NO production (fluorescence of oxidized DAQ product in FL4) [4]: induced NO production

CC(C)(C)OO [TBHP, tert-butyl hydroperoxide]
ROS types induced (green DCF and orange HE fluorescence) [2]: majority of peroxide/hydroxyl radicals/peroxynitrite

Nc1cc2ccccc2cc1N [DAN, 2,3-diamino naphthalene]
cellular toxicity [14]: high cellular toxicity
solubility in aqueous solution [15]: poorly soluble

Nc1ccc(Oc2ccc3c(-c4ccccc4C(=O)O)c4ccc(=O)cc-4oc3c2)cc1 [APF, 2-[6-(4′-amino)phenoxy-3H-xanthen-3-on-9-yl]benzoic acid]
Fluorescence increase [6]: 9
Fluorescence increase [7]: 6
Fluorescence increase [8]: 1200
Fluorescence increase [9]: 1
Fluorescence increase [10]: 560
Fluorescence increase [11]: 3600
Fluorescence increase [12]: 1
Fluorescence increase [13]: 2
